Here are results for eight compounds from US8426353B2, “Process for preparing polyurea microcapsules” (Firmenich SA, priority 2008, dated 2013).

Where two headings read alike, the source gives them in different places.

A short description of data set [1]: GC-MS analysis of perfume leaked out of the capsules during one month storage in concentrated liquid detergent. The conditions noted are these: for Percentage of ingredient having leaked out of the capsules during one month storage, % In concentrated Liquid Detergent 22° C. / Percentage of ingredient having leaked out of the capsules during one month storage, % In concentrated Liquid Detergent 37° C.: perfume of Example 6 encapsulated per Example 2, capsules at 1.25% in Tide 2x Concentrated HE Free; for Percentage of ingredient having leaked out of the capsules during one month storage, % In concentrated Liquid Detergent 22° C. / Percentage of perfume having leaked out of the capsules upon one month storage, % In Concentrated Liquid Detergent at 22° C.: one month at 22° C.; for Percentage of ingredient having leaked out of the capsules during one month storage, % In concentrated Liquid Detergent 37° C. / Percentage of perfume having leaked out of the capsules upon one month storage, % In Concentrated Liquid Detergent at 37° C.: one month at 37° C.; for Percentage of perfume having leaked out of the capsules upon one month storage, % In Concentrated Liquid Detergent at 22° C. / Percentage of perfume having leaked out of the capsules upon one month storage, % In Concentrated Liquid Detergent at 37° C.: perfume of Example 9 encapsulated per Example 2, capsules at 1.25% in Tide 2x Concentrated HE Free. The data set is classed as physicochemical. From the text: The concentrated liquid detergent base was a commercially available Tide® 2× Concentrated HE Free of perfume & dye (trademark of Procter and Gamble, USA).
The concentrated liquid detergent base was the commercially available Tide® 2× Concentrated HE Free of perfume & dye (trademark of Procter and Gamble, USA).

Data set [2] is described as follows: LogP of the perfume ingredients.
A short description of data set [3]: GC-MS analysis of perfume leaked out of the capsules during one month storage in concentrated fabric softener. The data set is classed as physicochemical. The conditions noted are these: for Percentage of ingredient having leaked out of the capsules during one month storage, % In fabric softener 37° C.: perfume of Example 6 encapsulated per Example 2, capsules at 1.25%; for Percentage of ingredient having leaked out of the capsules during one month storage, % In fabric softener 37° C. / Percentage of perfume having leaked out of the capsules upon one month storage, % In fabric softener at 37° C.: one month at 37° C.; for Percentage of perfume having leaked out of the capsules upon one month storage, % In fabric softener at 22° C. / Percentage of perfume having leaked out of the capsules upon one month storage, % In fabric softener at 37° C.: perfume of Example 9 encapsulated per Example 2, capsules at 1.25%; for Percentage of perfume having leaked out of the capsules upon one month storage, % In fabric softener at 22° C.: one month at 22° C. As for the experimental part:
The concentrated fabric softener base was prepared by admixing the ingredients listed in Table 4, in the amounts indicated.

[4] abbreviates: ingredients of the perfume of Example 9 (Table 9).
Where [5] appears, read: ingredients of the perfume of Example 6 (Table 1).

As for `CC(C=O)Cc1ccc(C(C)(C)C)cc1` (stereo not shown) [Lilial ®, 3-(4-tert-butylphenyl)-2-methylpropanal], in data set [1], the “Percentage of ingredient having leaked out of the capsules during one month storage, % In concentrated Liquid Detergent 22° C.” value is 1%; the “Percentage of ingredient having leaked out of the capsules during one month storage, % In concentrated Liquid Detergent 37° C.” value came to 14%; the “Percentage of perfume having leaked out of the capsules upon one month storage, % In Concentrated Liquid Detergent at 22° C.” value came out at 0%; the “Percentage of perfume having leaked out of the capsules upon one month storage, % In Concentrated Liquid Detergent at 37° C.” value stood at 18%. Also, in data set [2], the LogP was 4.36. The same compound gave a LogP in data set [2] (setting [4]) of 4.36. In data set [3], the “Percentage of ingredient having leaked out of the capsules during one month storage, % In fabric softener 37° C.” value (“Percentage … % In fabric softener 37° C.” below) turned out to be 3%; the “Percentage of perfume having leaked out of the capsules upon one month storage, % In fabric softener at 22° C.” value (from here on “Percentage … % In fabric softener at 22° C.”) is given as 0%; the “Percentage of perfume having leaked out of the capsules upon one month storage, % In fabric softener at 37° C.” value (from here on “Percentage … % In fabric softener at 37° C.”) was found to be 7%.
Turning to `CC(=O)OC1CCC(C(C)(C)C)CC1` (stereo not shown) [Lorysia ®, 4-(1,1-dimethylethyl)-1-cyclohexyl acetate], in data set [1], the “Percentage of ingredient having leaked out of the capsules during one month storage, % In concentrated Liquid Detergent 22° C.” value was 1% and the “Percentage of ingredient having leaked out of the capsules during one month storage, % In concentrated Liquid Detergent 37° C.” value was determined as 11%. The compound also came in with a LogP in data set [2] of 4.42. Also, in data set [3], the “Percentage … % In fabric softener 37° C.” value amounted to 5%.
For `CC1=CCC(C(C)CC2CCCC2=O)CC1` (stereo not drawn) [Nectalactone, (1′R)-2-[2-(4′-methyl-3′-cyclohexen-1′-yl)propyl]cyclopentanone], in data set [1], the “Percentage of ingredient having leaked out of the capsules during one month storage, % In concentrated Liquid Detergent 22° C.” value is reported as 1% and the “Percentage of ingredient having leaked out of the capsules during one month storage, % In concentrated Liquid Detergent 37° C.” value is 19%. Moreover, the LogP in data set [2] (setting [5]) came to 5.05. Further, in data set [3], the “Percentage … % In fabric softener 37° C.” value worked out at 5%.
With `C=CCCC(=O)C1=CCCC(C)(C)C1` [Neobutenone ® alpha, 1-(5,5-dimethyl-1-cyclohexen-1-yl)-4-penten-1-one], in data set [1], the “Percentage of ingredient having leaked out of the capsules during one month storage, % In concentrated Liquid Detergent 22° C.” value was found to be 1% and the “Percentage of ingredient having leaked out of the capsules during one month storage, % In concentrated Liquid Detergent 37° C.” value amounted to 27%. The same compound yielded a LogP in data set [2] of 4.45. Further, the “Percentage … % In fabric softener 37° C.” value in data set [3] was determined as 9%.
As to `CC(C)=CC1CC(C)CCO1` (stereo not shown) [Rose oxide], in data set [1], the “Percentage of perfume having leaked out of the capsules upon one month storage, % In Concentrated Liquid Detergent at 22° C.” value is 8% and the “Percentage of perfume having leaked out of the capsules upon one month storage, % In Concentrated Liquid Detergent at 37° C.” value was found to be 92%. Also, the LogP in data set [2] (setting [4]) is recorded as 3.58. In data set [3], the “Percentage … % In fabric softener at 22° C.” value is listed as 8% and the “Percentage … % In fabric softener at 37° C.” value was determined as 68%.
With `CC(=O)OC1CC2CC1C1CC=CC21` (stereo not shown) [Verdyl acetate, Verdyl Acetate], in data set [1], the “Percentage of perfume having leaked out of the capsules upon one month storage, % In Concentrated Liquid Detergent at 22° C.” value amounted to 6% and the “Percentage of perfume having leaked out of the capsules upon one month storage, % In Concentrated Liquid Detergent at 37° C.” value is on record as 80%. In addition, the LogP in data set [2] (setting [4]) is given as 2.85. In data set [3], the “Percentage … % In fabric softener at 22° C.” value was 6% and the “Percentage … % In fabric softener at 37° C.” value turned out to be 10%.
For the compound `CCC(=O)OC1CC2CC1C1CC=CC21` (stereo not shown) [Verdyl propionate], in data set [1], the “Percentage of perfume having leaked out of the capsules upon one month storage, % In Concentrated Liquid Detergent at 22° C.” value is recorded as 5% and the “Percentage of perfume having leaked out of the capsules upon one month storage, % In Concentrated Liquid Detergent at 37° C.” value is reported as 51%. Also, in data set [2] (setting [4]), the LogP was determined as 3.34. Besides, in data set [3], the “Percentage … % In fabric softener at 22° C.” value amounted to 5% and the “Percentage … % In fabric softener at 37° C.” value was found to be 8%.
As to `CC(=O)OC1CC2CC1C1CC=CC21` (stereo not shown) [Verdylate], in data set [1], the “Percentage of ingredient having leaked out of the capsules during one month storage, % In concentrated Liquid Detergent 22° C.” value worked out at 1% and the “Percentage of ingredient having leaked out of the capsules during one month storage, % In concentrated Liquid Detergent 37° C.” value turned out to be 14%. This compound also showed a LogP in data set [2] (setting [5]) of 3.76. Moreover, the “Percentage … % In fabric softener 37° C.” value in data set [3] was 5%.

As usually defined, the LogP is the decadic logarithm of the partition coefficient of the neutral form, usually between octanol and water. Higher therefore signals higher lipophilicity.
